From PMC7665192, “A natriuretic peptide from Arabidopsis thaliana (AtPNP-A) can modulate catalase 2 activity” (Scientific Reports, 2020)
Positions of bridges follow the written chain, without caps; N, C: chain ends. Residues, ends and D or L forms follow the SMILES beside them. *: point of attachment. Biotin = O=C1N[C@H]2[C@H](CS[C@H]2CCCCC(=O)*)N1

How the values were obtained:
CAT2 = test: Protein-peptide cross-linking, affinity-based isolation and LC–MS/MS; type: binding, Arabidopsis thaliana; details: biotinylated pAtPNP-A, cross-linking in A. thaliana mesophyll cell protoplasts; data set published in ref 44
Method: Cross-linking experiments followed by affinity-based isolation and LC-MS/MS identification of […] interactors were performed on A. thaliana (Col-0) wild type (WT) mesophyll cell protoplasts (MCPs) as described in[44].

[1] = test system: MAC5S, MOS4-associated complex subunit 5C; test: Yeast two-hybrid (Y2H) screen; type: binding, A. thaliana; details: bait AtPNP-A amino acids 26–130, prey At5g07060.1
Method: (§1) The Y2H screen using AtPNP-A as bait was carried out by Dualsystems Biotech AG (Zurich, Switzerland). The bait construct for the screening was made by subcloning the cDNA fragment encoding exported portion of AtPNP-A (amino acids 26 to 130) (Fig. 1a) into the pLexA-DIR vector (Dualsystems Biotech AG). The bait construct was transformed into the strain NMY32 (MATa his3Δ200 trp1-901 leu2-3,112 (lexAop)8-ADE2 LYS2::(lexAop)4-HIS3 URA3::(lexAop)8-lacZ GAL4) using standard procedures. Correct expression of the bait was verified by western blotting of cell extracts using a mouse monoclonal antibody directed against the LexA domain (Dualsystems Biotech AG). The absence of self-activation was verified by co-transformation of the bait together with a control prey and selection on minimal medium lacking tryptophan, leucine, and histidine (selective medium). For the Y2H screen, the bait was co-transformed together with a normalized A. thaliana universal P02403 cDNA library (Dualsystems Biotech AG) into NMY32. 3.1 × 10^6 transformants were screened, yielding 96 transformants that grew on selective medium. […] Library plasmids were isolated from positive clones. The identity of positive interactants was determined by sequencing. DNA sequences translated in all three reading frames and searching against the SwissProt database using the BLASTX algorithm (https://blast.ncbi.nlm.nih.gov).

[2] = test system: ADH5, alcohol dehydrogenase 2; test: Yeast two-hybrid (Y2H) screen; type: binding, A. thaliana; details: bait AtPNP-A amino acids 26–130, prey At5g43940.1
Method: as §1

[3] = test system: Basic-leucine zipper (bZIP) TF family protein; test: Yeast two-hybrid (Y2H) screen; type: binding, A. thaliana; details: bait AtPNP-A amino acids 26–130, prey At2g31370.1
Method: as §1

Unknown protein = test: Yeast two-hybrid (Y2H) screen; type: binding, A. thaliana; details: bait AtPNP-A amino acids 26–130, prey At5g39570.1
Method: as §1

[4] = test system: Protein containing PAM2 motif; test: Yeast two-hybrid (Y2H) screen; type: binding, A. thaliana; details: bait AtPNP-A amino acids 26–130, prey At4g14270.1
Method: as §1

[5] = test system: SHA1, shoot apical meristem arrest 1; test: Yeast two-hybrid (Y2H) screen; type: binding, A. thaliana; details: bait AtPNP-A amino acids 26–130, prey At5g63780.1
Method: as §1

[6] = test system: RAP2.12, ethylene response factor; test: Yeast two-hybrid (Y2H) screen; type: binding, A. thaliana; details: bait AtPNP-A amino acids 26–130, prey At1g53910.1
Method: as §1

[7] = test system: ER, enhanced of rudimentary homologue, ATER; test: Yeast two-hybrid (Y2H) screen; type: binding, A. thaliana; details: bait AtPNP-A amino acids 26–130, prey At5g10810.1
Method: as §1

[8] = test system: HISN5B, histidine biosynthesis 5B; test: Yeast two-hybrid (Y2H) screen; type: binding, A. thaliana; details: bait AtPNP-A amino acids 26–130, prey At4g14910.1
Method: as §1

[9] = test system: CRF6, cytokinin response factor 6; test: Yeast two-hybrid (Y2H) screen; type: binding, A. thaliana; details: bait AtPNP-A amino acids 26–130, prey At3g61630.1
Method: as §1

Expr, expansin-like B1 = test: Yeast two-hybrid (Y2H) screen; type: binding, A. thaliana; details: bait AtPNP-A amino acids 26–130, prey At4g17030.1
Method: as §1

[10] = test system: IGPD, imidazole glycerol-phosphate dehydratase; test: Yeast two-hybrid (Y2H) screen; type: binding, A. thaliana; details: bait AtPNP-A amino acids 26–130, prey At3g22425.1
Method: as §1

RCA, rubisco activase = test: Yeast two-hybrid (Y2H) screen; type: binding, A. thaliana; details: bait AtPNP-A amino acids 26–130, prey At2g39730.1
Method: as §1

[11] = test system: CLA, 1-deoxy-D-xylulose-5-phosphate synthase; test: Yeast two-hybrid (Y2H) screen; type: binding, A. thaliana; details: bait AtPNP-A amino acids 26–130, prey At4g15560.1
Method: as §1

NUDX1, nudix hydrolase 1 = test: Yeast two-hybrid (Y2H) screen; type: binding, A. thaliana; details: bait AtPNP-A amino acids 26–130, prey At1g68760.1
Method: as §1

[12] = test system: ERP/AP2, ethylene response factor; test: Yeast two-hybrid (Y2H) screen; type: binding, A. thaliana; details: bait AtPNP-A amino acids 26–130, prey At5g07580.1
Method: as §1

CAT2, catalase 2 = test: Yeast two-hybrid (Y2H) screen; type: binding, A. thaliana; details: bait AtPNP-A amino acids 26–130, prey At4g35090.1
Method: as §1

FED A, ferredoxin 2 = test: Yeast two-hybrid (Y2H) screen; type: binding, A. thaliana; details: bait AtPNP-A amino acids 26–130, prey At1g60950.1
Method: as §1

[13] = test system: PGR1, photosynthetic electron transfer C; test: Yeast two-hybrid (Y2H) screen; type: binding, A. thaliana; details: bait AtPNP-A amino acids 26–130, prey At4g03280.1
Method: as §1

P. syringae = test system: P. syringae; parameters: method as in PMID 32409317, PMID 28401640; details: cited from earlier work
[14] = test system: SPL8, squamosal promoter binding protein-like 8; test: Yeast two-hybrid (Y2H) screen; parameters: species or system A. thaliana; details: bait AtPNP-A amino acids 26–130, prey At1g02065.1
Method: as §1

[15] = test system: NAD(P)-binding Rossmann-fold superfamily protein; test: Yeast two-hybrid (Y2H) screen; parameters: species or system A. thaliana; details: bait AtPNP-A amino acids 26–130, prey At1g07440.1
Method: as §1

[16] = test system: Calcium-binding EF-hand family protein; test: Yeast two-hybrid (Y2H) screen; parameters: species or system A. thaliana; details: bait AtPNP-A amino acids 26–130, prey At2g41410.1
Method: as §1

For `CC(C)C[C@@H]1NC(=O)[C@H](CC(N)=O)NC(=O)[C@H](CC(N)=O)NC(=O)[C@H](CCCCN)NC(=O)[C@H](C(C)C)NC(=O)CNC(=O)[C@H](C(C)C)NC(=O)[C@H](C(C)C)NC(=O)[C@H](CC(C)C)NC(=O)[C@H]([C@@H](C)O)NC(=O)[C@H](CCC(=O)O)NC(=O)[C@H](CCCNC(=N)N)NC(=O)[C@H](CCC(N)=O)NC(=O)[C@H]([C@@H](C)O)NC(=O)CNC(=O)[C@H](Cc2ccc(O)cc2)NC(=O)[C@@H](NC(=O)[C@H](C)NC(=O)[C@H](CO)NC(=O)[C@H](CCCNC(=N)N)NC(=O)[C@@H](NC(=O)[C@H](Cc2ccc(O)cc2)NC(=O)[C@@H]2CCCN2)[C@@H](C)O)CSSC[C@@H](C(=O)NCC(=O)N[C@@H](CCCNC(=N)N)C(=O)N[C@@H](CCCNC(=N)N)C(=O)N[C@@H](Cc2ccc(O)cc2)C(=O)N[C@@H](CCCNC(=N)N)C(=O)N[C@H](C(=O)N[C@@H](CCCNC(=N)N)C(=O)N[C@@H](CCCCNC(=O)CCCC[C@@H]2SC[C@@H]3NC(=O)N[C@@H]32)C(=O)O)C(C)C)NC(=O)[C@H](C)NC(=O)[C@H](CCCNC(=N)N)NC(=O)CNC(=O)[C@H](CC(N)=O)NC(=O)[C@H](CCC(N)=O)NC(=O)[C@H](Cc2c[nH]c3ccccc23)NC1=O` [pAtPNP-A] (H-PYTRSACYGTQRETLVVGVKNNLWQNGRACGRRYRVRK(Biotin)-OH; disulfide 7-30; N-terminus and C-terminus assumed), the “Identification of CAT2 by LC–MS/MS” value (CAT2) was “CAT2 was identified by LC–MS/MS only in samples containing pAtPNP-A”.

For “AtPNP-A: An A. thaliana PNP, termed AtPNP-A (At2g18660; Q9ZV52)”, the Strength of binding [1] was “Strong”, the Strength of binding [2] was “Weak” and the Strength of binding [3] was “Weak”. For the same compound, the Strength of binding (Unknown protein) was “Weak”, the Strength of binding [4] was “Moderate” and the Strength of binding [5] was “Strong”. The Strength of binding [6] was “Strong”, the Strength of binding [7] was “Weak” and the Strength of binding [8] was “Moderate”. For the same compound, the Strength of binding [9] was “Weak”, the Strength of binding (Expr, expansin-like B1) was “Weak” and the Strength of binding [10] was “Strong”. The Strength of binding (RCA, rubisco activase) was “Strong”, the Strength of binding [11] was “Weak” and the Strength of binding (NUDX1, nudix hydrolase 1) was “Moderate”. For the same compound, the Strength of binding [12] was “Strong”, the Strength of binding (CAT2, catalase 2) was “Weak” and the Strength of binding (FED A, ferredoxin 2) was “Weak”. For the same compound, the Strength of binding [13] was “Weak”, the “Role in response to P. syringae infection” value (P. syringae) was “protective role in the response to infection with P. syringae” and the Strength of binding [14] was “Weak”. For the same compound, the Strength of binding [15] was “Moderate” and the Strength of binding [16] was “Weak”.
